According to patent publication US20110224210A1, “NOVEL BIS-AMIDES AS ANTI-MALARIAL AGENTS” (priority 2008, published 2011):

Tested on: P. falciparum K1 (strain resistant to chloroquine and pyrimethamine), erythrocytic stages
Experiment: Plasmodium falciparum in vitro assay, [3H] hypoxanthine incorporation
Type: cell-based
Settings: Plasmodium falciparum, K1, P. falciparum strain K1; [3H] hypoxanthine incorporation; read-out: IC50 (nM) on K1
In short: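 K1 strain parasites grown in human red cells, 2.5% haematocrit, 0.3% parasitaemia, 37 °C, 4% CO2/3% O2; compounds in seven serial doubling dilutions.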

COCCN(C)C(=O)[C@H](Cc1ccccc1)N(Cc1ccc(N2CCOCC2)cc1)C(=O)C=Cc1csc(C)n1 [Example 62, (S)-N-{1-[(2-Methoxy-ethyl)-methyl-carbamoyl]-2-phenyl-ethyl}-3-(2-methyl-thiazol-4-yl)-N-(4-morpholin-4-yl-benzyl)-acrylamide]
IC50: 138 nM

COc1cccc(COCCN(C)C(=O)[C@H](Cc2ccccc2)N(Cc2ccc(N3CCOCC3)cc2)C(=O)C=Cc2ccc(C(F)(F)F)cc2)c1 [Example 191, (S)-N-(1-{[2-(3-Methoxy-benzyloxy)-ethyl]-methyl-carbamoyl}-2-phenyl-ethyl)-N-(4-morpholin-4-yl-benzyl)-3-(4-trifluoromethyl-phenyl)-acrylamide, formic acid]
IC50: 11 nM

CN(Cc1ccc(NC(=O)C2CC2)cc1)C(=O)[C@H](Cc1ccccc1)N(Cc1ccc(N2CCOCC2)cc1)C(=O)C=Cc1ccc(C(F)(F)F)nc1 [Example 273, (S)-Cyclopropanecarboxylic acid (4-{[methyl-(2-{(4-morpholin-4-yl-benzyl)-[3-(6-trifluoromethyl-pyridin-3-yl)-acryloyl]-amino}-3-phenyl-propionyl)-amino]-methyl}-phenyl)-amide]
IC50: 75 nM

O=C([C@H](Cc1ccccc1)N(Cc1ccc(-c2ccccn2)cc1)C(=O)C=Cc1ccc(C(F)(F)F)nc1)N1CCC(c2ccccc2)CC1 [Example 50, (S)-N-[1-Benzyl-2-oxo-2-(4-phenyl-piperidin-1-yl)-ethyl]-N-(4-pyridin-2-yl-benzyl)-3-(6-trifluoromethyl-pyridin-3-yl)-acrylamide]
IC50: 13 nM

COCCN(C)C(=O)[C@H](Cc1ccccc1)N(Cc1ccc(N2CCN(C(C)=O)CC2)cc1)C(=O)C=Cc1cnn(C)c1C [Example 117, (S)-N-[4-(4-Acetyl-piperazin-1-yl)-benzyl]-3-(1,5-dimethyl-1H-pyrazol-4-yl)-N-{1-[(2-methoxy-ethyl)-methyl-carbamoyl]-2-phenyl-ethyl}-acrylamide]
IC50: 117 nM

Cc1nn(C)c(C)c1C=CC(=O)N(Cc1ccc(-c2ccccn2)cc1)[C@@H](Cc1ccccc1)C(=O)N1CCC(N(C)C)CC1 [Example 9, (S)-N-[1-Benzyl-2-(4-dimethylamino-piperidin-1-yl)-2-oxo-ethyl]-N-(4-pyridin-2-yl-benzyl)-3-(1,3,5-trimethyl-1H-pyrazol-4-yl)-acrylamide]
IC50: 69 nM

CC(=O)N1CCN(c2ccc(CN(C(=O)C=Cc3ccc(C(F)(F)F)cc3)[C@@H](Cc3ccccc3)C(=O)N(C)CCN(C)Cc3ccc(O)cc3)cc2)CC1 [Example 238, (S)-N-[4-(4-Acetyl-piperazin-1-yl)-benzyl]-N-[1-({2-[(4-hydroxy-benzyl)-methyl-amino]-ethyl}-methyl-carbamoyl)-2-phenyl-ethyl]-3-(4-trifluoromethyl-phenyl)-acrylamide]
IC50: 27 nM

CC(=O)N1CCN(c2ccc(CN(C(=O)C=Cc3ccc(C(F)(F)F)nc3)[C@@H](Cc3ccccc3)C(=O)N(C)CCOCC#N)cc2)CC1 [Example 217, (S)-N-[4-(4-Acetyl-piperazin-1-yl)-benzyl]-N-{1-[(2-cyanomethoxy-ethyl)-methyl-carbamoyl]-2-phenyl-ethyl}-3-(6-trifluoromethyl-pyridin-3-yl)-acrylamide]
IC50: 32 nM

CN(C)[C@H]1CCN(C(=O)[C@H](Cc2ccccc2)N(Cc2ccc(-c3ccccn3)cc2)C(=O)C=Cc2ccc(C(F)(F)F)cc2)C1 [Example 54, N-[(S)-1-Benzyl-2-((S)-3-dimethylamino-pyrrolidin-1-yl)-2-oxo-ethyl]-N-(4-pyridin-2-yl-benzyl)-3-(4-trifluoromethyl-phenyl)-acrylamide]
IC50: 17 nM

COCCN(C)C(=O)[C@H](Cc1ccccc1)N(Cc1ccc(-c2ccccn2)cc1)C(=O)C=Cc1c(C)noc1C [Example 80, (S)-3-(3,5-Dimethyl-isoxazol-4-yl)-N-{1-[(2-methoxy-ethyl)-methyl-carbamoyl]-2-phenyl-ethyl}-N-(4-pyridin-2-yl-benzyl)-acrylamide]
IC50: 44 nM

COCCN(C)C(=O)[C@H](Cc1ccccc1)N(Cc1ccc(-c2ccncc2)cc1)C(=O)C=Cc1cnc(C)n1C [Example 92, (S)-3-(2,3-Dimethyl-3H-imidazol-4-yl)-N-{1-[(2-methoxy-ethyl)-methyl-carbamoyl]-2-phenyl-ethyl}-N-(4-pyridin-4-yl-benzyl)-acrylamide]
IC50: 23 nM

Cc1c(C=CC(=O)N(Cc2ccc(-c3ccccn3)cc2)[C@@H](Cc2ccccc2)C(=O)N2CCC(N(C)C)CC2)cnn1C [Example 18, (S)-N-[1-Benzyl-2-(4-dimethylamino-piperidin-1-yl)-2-oxo-ethyl]-3-(1,5-dimethyl-1H-pyrazol-4-yl)-N-(4-pyridin-2-yl-benzyl)-acrylamide]
IC50: 273 nM

O=C([C@H](Cc1ccccc1)N(Cc1ccc(-c2ccccn2)cc1)C(=O)C=Cc1ccc(C(F)(F)F)cc1)N1CCc2cccnc2C1 [Example 149, (S)-N-[1-Benzyl-2-(5,8-dihydro-6H-[1,7]naphthyridin-7-yl)-2-oxo-ethyl]-N-(4-pyridin-2-yl-benzyl)-3-(4-trifluoromethyl-phenyl)-acrylamide]
IC50: 26 nM

CN(CCN(C)C(=O)[C@H](Cc1ccccc1)N(Cc1ccc(-c2ccccn2)cc1)C(=O)C=Cc1ccc(C(F)(F)F)cc1)Cc1ccoc1 [Example 222, (S)-N-(1-{[2-(Furan-3-ylmethyl-methyl-amino)-ethyl]-methyl-carbamoyl}-2-phenyl-ethyl)-N-(4-pyridin-2-yl-benzyl)-3-(4-trifluoromethyl-phenyl)-acrylamide]
IC50: 13 nM

CN(CCOCc1cccc(OC(F)(F)F)c1)C(=O)[C@H](Cc1ccccc1)N(Cc1ccc(N2CCOCC2)cc1)C(=O)C=Cc1ccc(C(F)(F)F)cc1 [Example 198, (S)-N-(1-{Methyl-[2-(3-trifluoromethoxy-benzyloxy)-ethyl]-carbamoyl}-2-phenyl-ethyl)-N-(4-morpholin-4-yl-benzyl)-3-(4-trifluoromethyl-phenyl)-acrylamide]
IC50: 65 nM

CC(C)N(CCNC(=O)[C@H](Cc1ccccc1)N(Cc1ccc(-c2ccccn2)cc1)C(=O)C=Cc1ccc(C(F)(F)F)cc1)C(C)C [Example 155]
IC50: 327 nM

CC(=O)N1CCN(c2ccc(CN(C(=O)C=Cc3ccc(C(F)(F)F)cc3)[C@@H](Cc3ccccc3)C(=O)N(C)CCOCCOCc3ccccc3)cc2)CC1 [Example 210, (S)-N-[4-(4-Acetyl-piperazin-1-yl)-benzyl]-N-(1-{[2-(2-benzyloxy-ethoxy)-ethyl]-methyl-carbamoyl}-2-phenyl-ethyl)-3-(4-trifluoromethyl-phenyl)-acrylamide]
IC50: 28 nM

COCCN(C)C(=O)[C@H](Cc1ccccc1)N(Cc1ccc(-c2ccccn2)cc1)C(=O)C=Cc1ccc(C(F)(F)F)cn1 [Example 89, (S)-N-{1-[(2-Methoxy-ethyl)-methyl-carbamoyl]-2-phenyl-ethyl}-N-(4-pyridin-2-yl-benzyl)-3-(5-trifluoromethyl-pyridin-2-yl)-acrylamide]
IC50: < 8 nM

COCCN(C)C(=O)[C@H](Cc1ccccc1)N(Cc1ccc(-c2cncnc2)cc1)C(=O)C=Cc1csc(C)n1 [Example 122, (S)-N-{1-[(2-Methoxy-ethyl)-methyl-carbamoyl]-2-phenyl-ethyl}-3-(2-methyl-thiazol-4-yl)-N-(4-pyrimidin-5-yl-benzyl)-acrylamide]
IC50: 156 nM

CN(C(=O)[C@H](Cc1ccccc1)N(Cc1ccc(-c2ccccn2)cc1)C(=O)C=Cc1ccc(C(F)(F)F)cc1)[C@H]1CCN(Cc2ccccc2)C1 [Example 172, N-{1-[((S)-1-Benzyl-pyrrolidin-3-yl)-methyl-carbamoyl]-(S)-2-phenyl-ethyl}-N-(4-pyridin-2-yl-benzyl)-3-(4-trifluoromethyl-phenyl)-acrylamide]
IC50: 89 nM

COCCN(C)C(=O)[C@H](Cc1ccccc1)N(Cc1ccc(-c2ccccn2)cc1)C(=O)C=Cc1csc(C)n1 [Example 78, (S)-N-{1-[(2-Methoxy-ethyl)-methyl-carbamoyl]-2-phenyl-ethyl}-3-(2-methyl-thiazol-4-yl)-N-(4-pyridin-2-yl-benzyl)-acrylamide]
IC50: 47 nM

COCCN(C)C(=O)[C@H](Cc1ccccc1)N(Cc1ccc(-c2ccncc2)cc1)C(=O)C=Cc1c(C)noc1C [Example 96, (S)-3-(3,5-Dimethyl-isoxazol-4-yl)-N-{1-[(2-methoxy-ethyl)-methyl-carbamoyl]-2-phenyl-ethyl}-N-(4-pyridin-4-yl-benzyl)-acrylamide]
IC50: 20 nM

O=C(NCCN1CCOCC1)[C@H](Cc1ccccc1)N(Cc1ccc(-c2ccccn2)cc1)C(=O)C=Cc1ccc(C(F)(F)F)cc1 [Example 151]
IC50: 373 nM

CN(CCN(C)C(=O)[C@H](Cc1ccccc1)N(Cc1ccc(-c2ccccn2)cc1)C(=O)C=Cc1ccc(C(F)(F)F)cc1)Cc1ccc(CO)o1 [Example 228, (S)-N-[1-({2-[(5-Hydroxymethyl-furan-2-ylmethyl)-methyl-amino]-ethyl}-methyl-carbamoyl)-2-phenyl-ethyl]-N-(4-pyridin-2-yl-benzyl)-3-(4-trifluoromethyl-phenyl)-acrylamide]
IC50: 9 nM

COCCN(C)C(=O)[C@H](Cc1ccccc1)N(Cc1ccccn1)C(=O)C=Cc1ccc(C)cc1 [Example 162, (S)-N-{1-[(2-Methoxy-ethyl)-methyl-carbamoyl]-2-phenyl-ethyl}-N-pyridin-2-ylmethyl-3-p-tolyl-acrylamide]
IC50: 45 nM

COc1ccc(CN(C)CCN(C)C(=O)[C@H](Cc2ccccc2)N(Cc2ccc(N3CCN(C(C)=O)CC3)cc2)C(=O)C=Cc2ccc(C(F)(F)F)cc2)cn1 [Example 247, (S)-N-[4-(4-Acetyl-piperazin-1-yl)-benzyl]-N-[1-({2-[(6-methoxy-pyridin-3-ylmethyl)-methyl-amino]-ethyl}-methyl-carbamoyl)-2-phenyl-ethyl]-3-(4-trifluoromethyl-phenyl)-acrylamide]
IC50: 26 nM

CN(CCN(C)C(=O)[C@H](Cc1ccccc1)N(Cc1ccc(-c2ccccn2)cc1)C(=O)C=Cc1ccc(C(F)(F)F)cc1)Cc1ccccn1 [Example 224, (S)-N-(1-{Methyl-[2-(methyl-pyridin-2-ylmethyl-amino)-ethyl]-carbamoyl}-2-phenyl-ethyl)-N-(4-pyridin-2-yl-benzyl)-3-(4-trifluoromethyl-phenyl)-acrylamide]
IC50: 29 nM
